Where “and” joins values, the source holds several entries; their conditions need not be identical. Identical values can stand only once.
Legend:
splenocytes = test: Splenocyte proliferation assay (3H-thymidine) after subcutaneous vaccination of mice with TG02; assay type: cell-based, BALB/c mice; conditions: ex vivo 10 μM TG02 per peptide or 1 μg/200 μL ConA, 5 days; for Counts per minute (CPM) of stimulated splenocytes: single replicates
Protocol: In this Example, mice were repeatedly vaccinated subcutaneously with TG02, in order to analyse the immune response. Following the vaccination, splenocytes were harvested, and the proliferative response of the splenocytes was measured.
The study was conducted with 3 groups, each compromising 10 female BALB/c mice. The start of the study was performed on two separate days on which 5 of the animals per group were treated. Therefore the groups were divided into part I and part II. The animals were treated subcutaneously at different time points (Table 30).
In all groups the test item was administered at repeated time points (Table 33) by subcutaneous injection between the nape of the neck and the shoulder. The application volume for all groups was 0.1 mL (0.80 mg TG02).
The spleen of all animals was removed, transferred to cell culture medium (RPMI 1640 medium supplemented with 10% FCS, 100 U/mL Penicillin, 100 μg/mL Streptomycin, 2 mM L-Glutamine, and 50 μM beta-mercaptoethanol) and stored on ice. All steps were performed sterile and cells were kept on ice.
A single cell suspension from splenic cells was generated using a cell strainer. After centrifugation (350 g, 5 min, 5±3° C.), supernatant was removed and the cell pellet was resuspended in ACK buffer and incubated for 5 min at RT. 10 mL cell culture medium was added. The samples were left 5 min on bench top to let the cell debris sediment. The suspension above the cell debris was transferred into another tube and was centrifuged (350 g, 5 min, 5±3° C.). The supernatant was removed and the cell pellet was resuspended in 10 mL cell culture medium. After counting of cells, 0.2 Mio cells were seeded in a 96 well plate (180 μL per well; 1,1*10^6 cells/mL). 9 replicates were plated on each plate for each spleen.
The following stimulations were performed: • 3 replicates: unstimulated (addition of 20 μL cell culture medium) • 3 replicates: stimulation with 10 μM TG02 (8 peptides, 10 μM end concentration per peptide, addition in 20 μL cell culture medium) • 3 replicates: stimulation with 1 μg/200 μL ConA (Concanavalin A) (addition of 1 μg ConA in 20 μL cell culture medium)
Incubation at 37° C. and 5% CO2 for 24 h (1), 48 h (2) or 5 days (3).
Proliferation Assay • (3) After 5 days, 1 μCi/well ^3H-Thymidine was added to the samples, which were then incubated for 18 h at 37° C. and 5% CO2. The plates were then frozen at […]
Plates were thawed at RT. After washing off the harvester, the samples were transferred to a filter plate using the harvester followed by 5 washing steps using water. Filter plates were dried at RT overnight. A foil was stuck to the bottom of the filter plates and 20 μL scintillation fluid was added to the wells. After incubation of 1 h at RT, the samples were measured using a TopCount NXT and the stimulation index (SI) was calculated. SI=CPM of stimulated samples/CPM of control samples.

T-cells [1] = test: 3-day T-cell proliferation assay after stimulation of buffy coat PBMCs with TGX3 or A146T peptide; assay type: cell-based, human; conditions: buffy coat of healthy donor (buffy 5), FIG. 11
Text: In this Example, Buffy coats were collected from three normal donors (Buffy 5, Buffy 6, and Buffy 7) for testing of T cell responses to selected peptides reflecting exon 2, 3 and 4 mutations in RAS. The standard operating procedure (SOP) for monitoring of T cell responses in clinical studies with KRAS peptide vaccination (TG01) was used for testing of peptide cocktail TGX3 and individual peptides.
Peptide cocktail TGX3 was a mixture of equimolar amounts of A146T+G13C+G13D+Q61R.
The procedure was performed at room temperature. All handling of cells in the open was done in a vertical laminar flow hood. • 1. 3 Buffy coats were ordered from Blodbanken, Ulleval, OUS, Norway • 2. PBMCs were isolated according to methods C001-003 (platelet-low). • 3. The number of viable cells was counted using KOVA Galsstic slides and the cell concentration adjusted to 4×10^6 cells/ml in complete CellGro DC medium (see recipe). Total cell numbers: Buffy 5-585×10^6, Buffy 6-360×10^6, and Buffy 7-405×10^6 cells. […]
c) Second Stimulation (Day 14) of Bulk Cultures • 1. Day 14: Harvested, washed and counted T-cells in the bulk cultures from 6.2; […]
d) Third Stimulation (Day 19) and Testing for Specificities in 3-Day T-Cell Proliferation Assay—Bulk Cultures • 1. Day 19: Harvested, washed and counted T-cells in the bulk cultures from 6.3; […]

T-cells [2] = test: Bulk cultures for increasing number of TGX3 and peptide reactive T-cells: total T cell numbers; assay type: cell-based, human; conditions: for Total T cell numbers in cultures: Day 14, after first stimulation, 10 μM of each peptide; for Total T cell numbers: Day 19, after second stimulation
Protocol: b) First Stimulation—Bulk Cultures for Increasing Number of TGX3 and Peptide Reactive T-Cells • 1. Transfered 1 ml of the different PBMCs (4×10^6 cells/ml in DC medium) to each well in a 24-well plate.
• 2. Added TGX3-mix/single peptide to each well for a final concentration of 10 μM of each peptide. • 3. Cultured the cells in a humidified incubator at 37° C./5% CO2 for 3 days • 4. Day 3: Added a final concentration of 20 iU/ml of recombinant human interleukin-2 (rIL-2, b#77) and final concentration of 5 ng/ml recombinant human IL-7 (b#25) to the cell cultures and continued incubation at 37° C./5% CO2. This depended on how fast the cells were growing and needed to be decided by a trained person with T-cell culture experience (according to checklist for training, Section for Cell Therapy). • 5. Days 4-12: Cells were checked regularly under the microscope and split when required (500 μl was withdrawn from each well and replaced with 500 μl fresh CellGro DC medium, supplemented with 20 iU/ml IL-2 and 5 ng/ml IL-7) and wells with slow growing cells were mixed together.
c) Second Stimulation (Day 14) of Bulk Cultures • 1. Day 14: Harvested, washed and counted T-cells in the bulk cultures from 6.2;
Bulk culture cells (ca 2×10^6 T cells/well) were re-stimulated once more with autologous irradiated (30 Gy) APCs (ca 2×10^6 APCs/well) added their respective peptides (as described in step b) above). • 2. Cultured the cells in a humidified incubator at 37° C./5% CO2 for 3 days. • 3. Day 3 after second stimulation (i.e. Day 17 of the procedure): A final concentration of 20 iU/ml of recombinant human interleukin-2 (rIL-2, b#77) and final concentration of 5 ng/ml recombinant human IL-7 (b#25) were added to the cell cultures and continued incubation at 37° C./5% CO2 (as described in step b) above). • 4. Day 18-26: Cells were checked regularly under the microscope and split when required (500 μl was withdrawn from each well and replaced with 500 μl fresh CellGro DC medium, supplemented with 20 iU/ml IL-2 and 5 ng/ml IL-7) and wells with slow growing cells were mixed together (see step b) above).
d) Third Stimulation (Day 19) and Testing for Specificities in 3-Day T-Cell Proliferation Assay—Bulk Cultures • 1. Day 19: Harvested, washed and counted T-cells in the bulk cultures from 6.3;

Concanavalin A [ConA] was tested, and the “Mean counts per minute (CPM) of stimulated splenocytes” value (from here on “Mean counts per minute (CPM)”) (splenocytes; Mean Mouse #4 (vaccinated with TG02)) was 15,210 CPM, the “Mean counts per minute (CPM)” value (splenocytes; Mean Mouse #7 (vaccinated with TG02)) was 6158 CPM and the “Mean counts per minute (CPM)” value (splenocytes; Mean Mouse #24 (vaccinated with TG02+Viscogel)) was 8823 CPM. For the same substance, the “Mean counts per minute (CPM)” value (splenocytes; Mean Mouse #29 (vaccinated with TG02+Viscogel)) was 10,935 CPM, the “Counts per minute (CPM) of stimulated splenocytes” value (splenocytes; Mouse #4 (vaccinated with TG02)) was 15,113 CPM and 12,612 CPM and 17,906 CPM and the “Counts per minute (CPM) of stimulated splenocytes” value (splenocytes; Mouse #7 (vaccinated with TG02)) was 5305 CPM and 6252 CPM and 6916 CPM. The “Counts per minute (CPM) of stimulated splenocytes” value (splenocytes; Mouse #24 (vaccinated with TG02+Viscogel)) was 7834 CPM and 8578 CPM and 10,057 CPM, the “Counts per minute (CPM) of stimulated splenocytes” value (splenocytes; Mouse #29 (vaccinated with TG02+Viscogel)) was 9480 CPM and 13,292 CPM and 10,033 CPM and the “Counts per minute (CPM) of stimulated splenocytes” value (splenocytes; Mouse #30 (vaccinated with TG02+Viscogel)) was 32,205 CPM and 35,668 CPM and 42,149 CPM. For the same substance, the “Mean counts per minute (CPM)” value (splenocytes; Mouse #30 mean line (vaccinated with TG02+Viscogel)) was 36,687 CPM.

“GIPFIETSTKTRQRVED (listed as Homo sapiens) [A146T, KRAS peptide having a A146T mutation]” was tested, and the “T-cell proliferation after stimulation with A146T peptide (result in words)” value (T-cells [1]) was “immunogenic and is efficient in inducing T-cell proliferation”, the “T-cell proliferation after stimulation with A146T peptide (result in words)” value (T-cells [1]; listed as A146T peptide) was “stimulates induction of T-cells” and the “Total T cell numbers in cultures” value (T-cells [2]; Buffy 5) was 4 × 10^6. For the same substance, the “Total T cell numbers” value (T-cells [2]; Buffy 5) was 10.8 × 10^6, the “Total T cell numbers in cultures” value (T-cells [2]; Buffy 6) was 4 × 10^6 and the “Total T cell numbers” value (T-cells [2]; Buffy 6) was 12.6 × 10^6. The “Total T cell numbers in cultures” value (T-cells [2]; Buffy 7) was 6.8 × 10^6 and the “Total T cell numbers” value (T-cells [2]; Buffy 7) was 14.4 × 10^6.
